Series [1] in a line: MTT relative viability, PhTERT-SEAP (H1299) cells. The conditions noted are these: human.
The nature of series [2]: MTT relative viability, PhTERT-SEAP (hTERT-BJ1) cells. The conditions noted are these: human; for viability at 48 h, 2.8 µM / viability at 48 h, 28 µM: hTERT-BJ1 cells.
For series [3], the system named is hepatitis B virus transfected hepatoma cell lines, HepG 2.2.15 cells. Put plainly: Cytotoxicity assay, 2.2.15 cells. The class given is cell-based, human. The conditions noted are these: Homo sapiens, HepG2.2.15; 48 h of drug exposure.
The test system of series [4] is transcriptional activity of hTERT. Kind of series: SEAP reporter assay of hTERT expression, PhTERT-SEAP (H1299). The class given is cell-based, human. The protocol:
(§1) Secreted alkaine phosphatase was used as the reporter system to monitor the transcriptional activity of hTERT. Here, about […] each were grown in 96-well plates and incubated at 37° C. for 24 h and changed with fresh media. Varying amounts of drugs were added and cells were incubated for another 24 h. Culture media were collected and heated at 65° C. for 10 min to inactivate heat-labile phosphatases. An equal amount of SEAP buffer (2 M diethanolamine, 1 mM MgCl2, and 20 mM […]) was added to the media and p-nitrophenyl phosphate was added to a final concentration of 12 mM. Absorptions at 405 nm were taken, and the rate of absorption increase is determined.
(§2) Culture media were changed every 3 days. […] The stable clones were selected using G418.
A general note: Reporter assays use an easily measured gene product as a stand-in for the process of interest.

Series [5] has the same test system. Put plainly: SEAP reporter assay of hTERT expression, PhTERT-SEAP (hTERT-BJ1). It counts as cell-based, human. The protocol: as §1, §2
Another series deals with rat glioma C6 cells. Kind of series: Cytotoxicity assay (XTT colorimetric), C6 cells. The conditions noted are these: Rattus norvegicus, C6; 48 h of drug exposure. It counts as cell-based. In general terms: Tetrazolium assays rely on reduction of a dye to a coloured formazan, in cell work by metabolically active cells.
For another series, the system named is human hepatoma G2 cells. Put plainly: Cytotoxicity assay (XTT colorimetric), Hep G2. The following applies: Homo sapiens, HepG2; 48 h of drug exposure. It counts as cell-based.
The mark [6] stands for this setting: hTERT-BJ1 cells stably transfected with PhTERT-SEAP reporter.
Where [7] appears, read: Homo sapiens, NCI-H1299, hTERT-H1299, read-out: Relative SEAP activity (%).
Where [8] appears, read: Homo sapiens, hTERT-BJ1, read-out: Relative SEAP activity (%).

A value given as a limit tells only on which side of the number the result lay.

The values that follow come from patent US20050009924A1 (priority 2003, published 2005).

Usually viability stands for a read-out of living cells in per cent, often relative to untreated cells. As a reminder, the IC50 is the concentration needed to halve the response being measured. Read a high IC50 as weaker potency in that assay. Take `CC(=O)Nc1ccc(NC(C)=O)c2c1C(=O)c1ccccc1C2=O` [VI3, 1,4-Bisacetamido-9,10-anthracenedione]: the results for the viability at 48 h, 3.1 µM in series [1] and in series [2] (setting [6]) were 109 ± 3.5% and 117 ± 3%, respectively. For the same molecule, the viability at 48 h, 31 µM in series [1] was 108 ± 3.6%; in series [2] (setting [6]) it was 95 ± 11.9%. Besides, the viability at 48 h, 310 µM in series [1] was 37 ± 1.3%; in series [2] (setting [6]) it was 49 ± 8.9%. For the same molecule, the IC50 (in series [3]; with rat glioma C6 cells; in the series with human hepatoma G2 cells) was more than 20 µM each time. Further, the SEAP/vibility in series [4] (3.1 μM, PhTERT-SEAP(hTERT-H1299)) worked out at 0.78; in series [4] (31 μM, PhTERT-SEAP(hTERT-H1299)), 0.83; in series [4] (310 μM, PhTERT-SEAP(hTERT-H1299)), 2.16; in series [5] (3.1 μM, PhTERT-SEAP (hTERT-BJ1)) it was 0.66; in series [5] (31 μM, PhTERT-SEAP (hTERT-BJ1)), 0.87; in series [5] (310 μM, PhTERT-SEAP (hTERT-BJ1)), 1.20. For the same molecule, the activity at 3.1 µM was 85 ± 2.3% in series [4] (Homo sapiens, NCI-H1299, 3.1 μM, PhTERT-SEAP(hTERT-H1299), read-out: Relative SEAP activity (%)) and 77 ± 12.4% in series [5] (Homo sapiens, 3.1 μM, PhTERT-SEAP (hTERT-BJ1), read-out: Relative SEAP activity (%)). Moreover, the activity at 31 µM in series [4] (Homo sapiens, NCI-H1299, 31 μM, PhTERT-SEAP(hTERT-H1299), read-out: Relative SEAP activity (%)) came out at 90 ± 3.3%; in series [5] (Homo sapiens, 31 μM, PhTERT-SEAP (hTERT-BJ1), read-out: Relative SEAP activity (%)) it was 83 ± 10%. In addition, the activity at 310 µM came to 80 ± 3.1% in series [4] (Homo sapiens, NCI-H1299, 310 μM, PhTERT-SEAP(hTERT-H1299), read-out: Relative SEAP activity (%)) and 59 ± 15.2% in series [5] (Homo sapiens, 310 μM, PhTERT-SEAP (hTERT-BJ1), read-out: Relative SEAP activity (%)).

With `CC(C)CNc1cccc2c1C(=O)c1cccc(NCC(C)C)c1C2=O`, the viability at 48 h, 2.8 µM in series [1] was determined as 108 ± 4.8%; in series [2], 110 ± 7.6%. For the same molecule, the viability at 48 h, 28 µM in series [1] amounted to 106 ± 3.7%; in series [2], 103 ± 3%. The viability at 48 h, 285 µM in series [1] was determined as 80 ± 4.8%; in series [2], 72 ± 3.3%. In addition, the IC50 in series [3] is more than 20 µM; in the series with rat glioma C6 cells, 12.7 ± 0.37 µM; in the series on human hepatoma G2 cells, 14.3 ± 1.54 µM. For the same molecule, the activity at 2.8 µM in series [4] (setting [7]) was 94 ± 7%; in series [5] (setting [8]) it was 22 ± 18.3%. In addition, the activity at 28 µM in series [4] (setting [7]) stood at 91 ± 2.5%; in series [5] (setting [8]) it was 22 ± 21.4%. Besides, the activity at 285 µM in series [4] (Homo sapiens, NCI-H1299, 285 μM, hTERT-H1299, read-out: Relative SEAP activity (%)) turned out to be 75 ± 4.1%; in series [5] (Homo sapiens, 285 μM, hTERT-BJ1, read-out: Relative SEAP activity (%)), 29 ± 3.9%.

With `NCCCNc1cccc2c1C(=O)c1cccc(NCCCN)c1C2=O`, the viability at 48 h, 2.8 µM in series [1] worked out at 85 ± 11.5%; in series [2], 85 ± 6.9%. For the same molecule, the viability at 48 h, 28 µM amounted to 32 ± 9.3% in series [1] and 3 ± 6.9% in series [2]. For the same molecule, in series [1], the viability at 48 h, 283 µM came to 16 ± 2.1%. Besides, the IC50 in series [3] was determined as 7.48 µM; with rat glioma C6 cells, 12.18 ± 0.04 µM; with human hepatoma G2 cells it was 11.67 ± 0.09 µM. In addition, the activity at 2.8 µM in series [4] (setting [7]) was determined as 102 ± 4.9%; in series [5] (setting [8]), 103 ± 19.8%. Also, the activity at 28 µM came to 44 ± 7.5% in series [4] (setting [7]) and 47 ± 20.5% in series [5] (setting [8]). Further, the activity at 283 µM in series [4] (Homo sapiens, NCI-H1299, 283 μM, hTERT-H1299, read-out: Relative SEAP activity (%)) was determined as 38 ± 6%; in series [5] (Homo sapiens, 283 μM, hTERT-BJ1, read-out: Relative SEAP activity (%)), 60 ± 15.1%.
